Reference: US10351586B2, “Cytidine derivative dimers and applications thereof” (CHANGZHOU FANGYUAN PHARMACEUTICAL CO., LTD, priority 2014, dated 2019)
Marks after values point to notes of the source that are not given here.

Columns and labels:
[1] = tested on: HCT-116 human colon cancer xenografts; assay: Tumor growth inhibition of HCT-116 human colon cancer xenografts in nude mice; type: in vivo, Balb/c nude mice; conditions: for Relative tumor proliferation rate (T/C %) / Relative tumor volume (RTV) / Tumor growth inhibition rate (TGI %) / Tumor volume of HCT-116 human colon cancer xenografts: single IP injection (QD×1), D1 and D2 400 mg/kg, D3 350 mg/kg, D4 300 mg/kg; for Tumor volume of HCT-116 human colon cancer xenografts: Mean±SEM
Summary of the method: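 HCT-116 cells grown in F-12 with 10% FBS, inoculated into nude mice at ~3×10^7 cells/mL. Tumour diameter measured three times weekly, volume as V=3/4π(D/2)^3; activity given as TGI (%) versus control and T/C (%) from relative tumour volume Vt/V0.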

[2] = Body weight / toxicity of a single intraperitoneal injection in HCT-116 colon tumor-bearing nude mice; conditions: for Average rate of weight change of the animals / Average weight of the animals: single IP injection (QD×1), D1 and D2 400 mg/kg, D3 350 mg/kg, D4 300 mg/kg; for Average weight of the animals: Mean±SEM
Experimental: Corresponding test substance was weighed and put into a 5 mL glass tube. The test substance was dissolved in ethanol under the stirring by a 5 mm magnetic stirrer. After a complete dissolution, Cremophor EL was added with continuous stirring. Immediately prior to the user of the test substance, the labeled amount of physiological saline was added and stirred.
Animal experiments were performed. The animals were female Balb/c nude mice at specific pathogen free (SPF) level and were supplied from Shanghai Sippr/BK Lab Animal Ltd. (Shanghai, China). […] These animals were at the age of about 7 weeks to about 9 weeks at the beginning of the experiments and had the weight of about 18 grams to about 22 grams at the beginning of the experiment. The animals had acclimatization duration of about 5 days to about 7 days. Animals were numbered using their tail number. The animal room was maintained at about 23±2° C., 40%-70% humidity, with alternating light and dark every 12 hours.
4.2 Animal inoculation and grouping were performed. Under aseptic conditions, each nude mice was injected with 0.1 mL cell suspension into the right hind leg subcutaneously (3×10^6 cell/mouse). When the size of the tumor grew to have a volume of about 60-150 mm^3, nude mice with a similar tumor size and a desirable shape (e.g., with substantially same shape such as a substantially spherical shape, without having irregular shapes or multiple tumors grouped together) were selected and grouped. In the experiment, there were six mice in each group.
The mice in control group were injected with a mixed solution including ethanol, Cremophor EL and normal saline at a ratio of 5:5:90.
The mice were weighed 3 times every week.
4.4 Clinical symptoms were provided. All clinical symptoms of each animal were recorded at the beginning of the experiments and during the experiments. The observation was performed at the same time every day.
After administration of the test substance, when the weight reduction was >20%, when the animal was dying, or when the tumor volume exceeds about 2800 mm^3, the animal were euthanized by applying CO2. The tumor was separated and weighed, an autopsy was performed, and visual inspection was conducted and recorded on whether there were pathological changes in the organs.

[3] = D1 400 mg/kg Day 7, D2 400 mg/kg Day 9, D3 350 mg/kg Day 11, D4 300 mg/kg Day 11, single IP

CCCCOC(=O)Nc1ccn(C2OC(COC(=O)CCCC(=O)OC[C@H]3O[C@@H](n4ccc(NC(=O)OCCCC)nc4=O)C(F)(F)[C@@H]3OC(=O)OCCCC)C(OC(=O)OCCCC)C2(F)F)c(=O)n1 (stereo in doubt) [Compound D1, 1,5-di-[4-N-(n-butyloxycarbonyl)-3′-O-(n-butoxycarbonyl)-2′-deoxy-2′,2′-difluoro-cytidine]glutarate]
Relative tumor proliferation rate, minimum [1, 3]: 28.36%
Tumor inhibition rate, maximum [1, 3]: 91.49%
Relative tumor proliferation rate (T/C %) ([1]; Day 0): 0.00%
Relative tumor volume (RTV) ([1]; Day 0): 1.00
Tumor growth inhibition rate (TGI %) ([1]; Day 0): 0.00%
Tumor volume of HCT-116 human colon cancer xenografts ([1]; Day 0): 39.36 ± 6.16** mm^3
Relative tumor proliferation rate (T/C %) ([1]; Day 1): 80.13%
Relative tumor volume (RTV) ([1]; Day 1): 1.35 ± 0.24
Tumor growth inhibition rate (TGI %) ([1]; Day 1): 67.76%
Tumor volume of HCT-116 human colon cancer xenografts ([1]; Day 1): 58.20 ± 17.45** mm^3
Relative tumor proliferation rate (T/C %) ([1]; Day 2): 65.15%
Relative tumor volume (RTV) ([1]; Day 2): 1.35 ± 0.24
Tumor growth inhibition rate (TGI %) ([1]; Day 2): 73.77%
Tumor volume of HCT-116 human colon cancer xenografts ([1]; Day 2): 58.20 ± 17.45** mm^3
Relative tumor proliferation rate (T/C %) ([1]; Day 4): 32.20%
Relative tumor volume (RTV) ([1]; Day 4): 0.89 ± 0.12
Tumor growth inhibition rate (TGI %) ([1]; Day 4): 87.46%
Tumor volume of HCT-116 human colon cancer xenografts ([1]; Day 4): 37.24 ± 9.27** mm^3
Relative tumor proliferation rate (T/C %) ([1]; Day 7): 28.36%
Relative tumor volume (RTV) ([1]; Day 7): 1.16 ± 0.79
Tumor growth inhibition rate (TGI %) ([1]; Day 7): 91.49%
Tumor volume of HCT-116 human colon cancer xenografts ([1]; Day 7): 36.82 ± 28.63** mm^3
Relative tumor proliferation rate (T/C %) ([1]; Day 9): 28.77%
Relative tumor volume (RTV) ([1]; Day 9): 1.61 ± 0.98
Tumor growth inhibition rate (TGI %) ([1]; Day 9): 91.42%
Tumor volume of HCT-116 human colon cancer xenografts ([1]; Day 9): 50.63 ± 36.49** mm^3
Relative tumor proliferation rate (T/C %) ([1]; Day 11): 34.47%
Relative tumor volume (RTV) ([1]; Day 11): 3.18 ± 2.18
Tumor growth inhibition rate (TGI %) ([1]; Day 11): 89.65%
Tumor volume of HCT-116 human colon cancer xenografts ([1]; Day 11): 101.02 ± 78.57** mm^3
Relative tumor proliferation rate (T/C %) ([1]; Day 14): 64.15%
Relative tumor volume (RTV) ([1]; Day 14): 8.88 ± 6.75
Tumor growth inhibition rate (TGI %) ([1]; Day 14): 80.16%
Tumor volume of HCT-116 human colon cancer xenografts ([1]; Day 14): 285.66 ± 237.94* mm^3
Relative tumor proliferation rate (T/C %) ([1]; Day 16): 89.47%
Relative tumor volume (RTV) ([1]; Day 16): 15.44 ± 11.56
Tumor growth inhibition rate (TGI %) ([1]; Day 16): 72.62%
Tumor volume of HCT-116 human colon cancer xenografts ([1]; Day 16): 495.95 ± 408.8** mm^3
Relative tumor proliferation rate (T/C %) ([1]; Day 18): 106.69%
Relative tumor volume (RTV) ([1]; Day 18): 20.37 ± 13.96
Tumor growth inhibition rate (TGI %) ([1]; Day 18): 67.62%
Tumor volume of HCT-116 human colon cancer xenografts ([1]; Day 18): 647.07 ± 503.28** mm^3
Relative tumor proliferation rate (T/C %) ([1]; Day 21): 138.14%
Relative tumor volume (RTV) ([1]; Day 21): 32.34 ± 20.40
Tumor growth inhibition rate (TGI %) ([1]; Day 21): 58.38%
Tumor volume of HCT-116 human colon cancer xenografts ([1]; Day 21): 1017.61 ± 749.53 mm^3
Relative tumor proliferation rate (T/C %) ([1]; Day 23): 163.55%
Relative tumor volume (RTV) ([1]; Day 23): 32.34 ± 20.40
Tumor growth inhibition rate (TGI %) ([1]; Day 23): 56.91%
Tumor volume of HCT-116 human colon cancer xenografts ([1]; Day 23): 1017.61 ± 749.53 mm^3
Relative tumor proliferation rate (T/C %) ([1]; Day 25): 155.09%
Relative tumor volume (RTV) ([1]; Day 25): 33.53 ± 19.21
Tumor growth inhibition rate (TGI %) ([1]; Day 25): 59.56%
Tumor volume of HCT-116 human colon cancer xenografts ([1]; Day 25): 1044.35 ± 722.80 mm^3
Relative tumor proliferation rate (T/C %) ([1]; Day 28): 198.76%
Relative tumor volume (RTV) ([1]; Day 28): 42 ± 22
Tumor growth inhibition rate (TGI %) ([1]; Day 28): 51.78%
Tumor volume of HCT-116 human colon cancer xenografts ([1]; Day 28): 1296.79 ± 847.87 mm^3
Relative tumor proliferation rate (T/C %) ([1]; Day 30): 209.10%
Relative tumor volume (RTV) ([1]; Day 30): 51.88 ± 24.88
Tumor growth inhibition rate (TGI %) ([1]; Day 30): 43.36%
Tumor volume of HCT-116 human colon cancer xenografts ([1]; Day 30): 1589.29 ± 983.15 mm^3
Body weight after drug administration (in words) ([2]; D1 400 mg/kg, single IP, Day 4): significantly decreased
Average rate of weight change of the animals ([2]; Day 0): 0.00%
Average weight of the animals ([2]; Day 0): 19.98 ± 0.49 g
Average rate of weight change of the animals ([2]; Day 1): −2.55 ± 0.77%
Average weight of the animals ([2]; Day 1): 19.48 ± 0.58 g
Average rate of weight change of the animals ([2]; Day 2): −12.18 ± 2.63 %
Average weight of the animals ([2]; Day 2): 17.45 ± 0.81 g
Average rate of weight change of the animals ([2]; Day 4): −18.58 ± 4.66 %
Average weight of the animals ([2]; Day 4): 16.15 ± 1.08 g
Average rate of weight change of the animals ([2]; Day 7): −4.23 ± 3.77%
Average weight of the animals ([2]; Day 7): 19.80 ± 1.40 g
Average rate of weight change of the animals ([2]; Day 9): 0.42 ± 1.92%
Average weight of the animals ([2]; Day 9): 20.75 ± 1.05 g
Average rate of weight change of the animals ([2]; Day 11): 2.77 ± 4.27%
Average weight of the animals ([2]; Day 11): 21.25 ± 1.55 g
Average rate of weight change of the animals ([2]; Day 14): 3.29 ± 3.29%
Average weight of the animals ([2]; Day 14): 21.35 ± 1.35 g
Average rate of weight change of the animals ([2]; Day 16): 5.24 ± 2.74%
Average weight of the animals ([2]; Day 16): 21.75 ± 1.25 g
Average rate of weight change of the animals ([2]; Day 18): 12.70 ± 4.20 %
Average weight of the animals ([2]; Day 18): 23.30 ± 1.60 g
Average rate of weight change of the animals ([2]; Day 21): 7.90 ± 2.90 %
Average weight of the animals ([2]; Day 21): 22.30 ± 1.30 g
Average rate of weight change of the animals ([2]; Day 23): 9.32 ± 3.82 %
Average weight of the animals ([2]; Day 23): 22.60 ± 1.50 g
Average rate of weight change of the animals ([2]; Day 25): 12.20 ± 4.70%
Average weight of the animals ([2]; Day 25): 23.20 ± 1.70 g
Average rate of weight change of the animals ([2]; Day 28): 15.14 ± 3.64%
Average weight of the animals ([2]; Day 28): 23.80 ± 1.50 g
Average rate of weight change of the animals ([2]; Day 30): 14.22 ± 2.22%
Average weight of the animals ([2]; Day 30): 23.60 ± 1.20 g
